# Test results as given in the NIST ThermoML archive (doi:10.1021/je800658v).
# ± gives the expanded uncertainty stated by the source.
# Test: activity coefficient (dimensionless); of the first substance listed, at infinite dilution; xn = mol fraction of the nth substance listed
# Conditions: Liquid, x1 = 0
# [1] = 303.35 K, inverse gas chromatography
# [2] = 312.55 K, inverse gas chromatography
# [3] = 322.55 K, inverse gas chromatography
# [4] = 332.55 K, inverse gas chromatography
Compound,activity coefficient [1],activity coefficient [2],activity coefficient [3],activity coefficient [4],"activity coefficient (303.35 K, Chromatography)","activity coefficient (312.55 K, Chromatography)","activity coefficient (322.55 K, Chromatography)","activity coefficient (332.55 K, Chromatography)"
"Cc1ccccc1C [1,2-dimethylbenzene] + CCCCn1cc[n+](C)c1.F[B-](F)(F)F",6.53 ± 0.39,5.55 ± 0.33,5.83 ± 0.35,4.77 ± 0.29,–,–,–,–
"Cc1cccc(C)c1 [1,3-dimethylbenzene] + CCCCn1cc[n+](C)c1.F[B-](F)(F)F",7.81 ± 0.47,7.4 ± 0.44,6.89 ± 0.41,6.56 ± 0.39,–,–,–,–
"Cc1ccc(C)cc1 [1,4-dimethylbenzene] + CCCCn1cc[n+](C)c1.F[B-](F)(F)F",7.36 ± 0.44,6.68 ± 0.4,6.71 ± 0.4,6.26 ± 0.38,–,–,–,–
"C1COCCO1 [1,4-dioxane] + CCCCn1cc[n+](C)c1.F[B-](F)(F)F",1.26 ± 0.08,1.24 ± 0.07,1.28 ± 0.08,1.22 ± 0.07,–,–,–,–
C#CCCCCC [1-heptyne] + CCCCn1cc[n+](C)c1.F[B-](F)(F)F,13.2 ± 0.79,12.5 ± 0.75,11.9 ± 0.72,11.7 ± 0.7,–,–,–,–
C#CCCCC [1-hexyne] + CCCCn1cc[n+](C)c1.F[B-](F)(F)F,8.29 ± 0.5,7.53 ± 0.45,7.47 ± 0.45,6.82 ± 0.41,–,–,–,–
CCC[N+](=O)[O-] [1-nitropropane] + CCCCn1cc[n+](C)c1.F[B-](F)(F)F,1.54 ± 0.09,1.46 ± 0.09,1.46 ± 0.09,1.5 ± 0.09,–,–,–,–
"OCC(F)(F)F [2,2,2-trifluoroethanol] + CCCCn1cc[n+](C)c1.F[B-](F)(F)F",0.36 ± 0.02,0.33 ± 0.02,0.32 ± 0.02,0.3 ± 0.02,–,–,–,–
"CC(C)CC(C)(C)C [2,2,4-trimethylpentane] + CCCCn1cc[n+](C)c1.F[B-](F)(F)F",321 ± 19,231 ± 14,198 ± 12,272 ± 16,–,–,–,–
CC(C)CO [2-methyl-1-propanol] + CCCCn1cc[n+](C)c1.F[B-](F)(F)F,4.17 ± 0.25,3.99 ± 0.24,3.28 ± 0.2,2.84 ± 0.17,–,–,–,–
CCC(C)CC [3-methylpentane] + CCCCn1cc[n+](C)c1.F[B-](F)(F)F,126 ± 7.6,94.3 ± 5.7,82.9 ± 5,152 ± 9.2,–,–,–,–
CC#N [acetonitrile] + CCCCn1cc[n+](C)c1.F[B-](F)(F)F,0.65 ± 0.04,0.63 ± 0.04,0.64 ± 0.04,0.61 ± 0.04,–,–,–,–
c1ccccc1 [benzene] + CCCCn1cc[n+](C)c1.F[B-](F)(F)F,2.2 ± 0.13,2.17 ± 0.13,2.25 ± 0.14,2.16 ± 0.13,–,–,–,–
CCCCO [butan-1-ol] + CCCCn1cc[n+](C)c1.F[B-](F)(F)F,4.74 ± 0.29,3.82 ± 0.23,3.33 ± 0.2,2.69 ± 0.16,–,–,–,–
CCCC=O [butanal] + CCCCn1cc[n+](C)c1.F[B-](F)(F)F,2.19 ± 0.13,2.13 ± 0.13,2.15 ± 0.13,2.06 ± 0.12,–,–,–,–
CCC(C)=O [butanone] + CCCCn1cc[n+](C)c1.F[B-](F)(F)F,1.5 ± 0.09,1.48 ± 0.09,1.44 ± 0.09,1.25 ± 0.08,–,–,–,–
C1CCCCCC1 [cycloheptane] + CCCCn1cc[n+](C)c1.F[B-](F)(F)F,78.7 ± 4.7,98.2 ± 5.9,131 ± 7.9,167 ± 10,–,–,–,–
C1CCCCC1 [cyclohexane] + CCCCn1cc[n+](C)c1.F[B-](F)(F)F,62.5 ± 3.8,48.4 ± 2.9,42.7 ± 2.6,35.3 ± 2.1,–,–,–,–
ClCCl [dichloromethane] + CCCCn1cc[n+](C)c1.F[B-](F)(F)F,0.69 ± 0.04,0.72 ± 0.04,0.79 ± 0.05,0.79 ± 0.05,–,–,–,–
CCOCC [diethyl ether] + CCCCn1cc[n+](C)c1.F[B-](F)(F)F,10.2 ± 0.61,9.39 ± 0.56,8.18 ± 0.49,7.42 ± 0.45,–,–,–,–
C[N+](=O)[O-] [nitromethane] + CCCCn1cc[n+](C)c1.F[B-](F)(F)F,0.59 ± 0.04,0.56 ± 0.03,0.56 ± 0.03,0.56 ± 0.03,–,–,–,–
CC(C)O [propan-2-ol] + CCCCn1cc[n+](C)c1.F[B-](F)(F)F,3.2 ± 0.19,2.76 ± 0.17,2.5 ± 0.15,2.15 ± 0.13,–,–,–,–
c1ccncc1 [pyridine] + CCCCn1cc[n+](C)c1.F[B-](F)(F)F,1 ± 0.06,0.99 ± 0.06,0.97 ± 0.06,0.94 ± 0.06,–,–,–,–
ClC(Cl)(Cl)Cl [tetrachloromethane] + CCCCn1cc[n+](C)c1.F[B-](F)(F)F,5.53 ± 0.33,5.44 ± 0.33,5.38 ± 0.32,5.2 ± 0.31,–,–,–,–
Cc1ccccc1 [toluene] + CCCCn1cc[n+](C)c1.F[B-](F)(F)F,4.37 ± 0.26,3.96 ± 0.24,3.97 ± 0.24,3.84 ± 0.23,–,–,–,–

# Continued, values first:
activity coefficient [1],activity coefficient [2],activity coefficient [3],activity coefficient [4],"activity coefficient (303.35 K, Chromatography)","activity coefficient (312.55 K, Chromatography)","activity coefficient (322.55 K, Chromatography)","activity coefficient (332.55 K, Chromatography)",Compound
30.7 ± 1.8,33.5 ± 2,26.9 ± 1.6,24.3 ± 1.5,–,–,–,–,CC(C)OC(C)C [diisopropyl ether] + CCCCn1cc[n+](C)c1.F[B-](F)(F)F
2.15 ± 0.13,1.91 ± 0.11,1.7 ± 0.1,1.53 ± 0.09,–,–,–,–,CCO [ethanol] + CCCCn1cc[n+](C)c1.F[B-](F)(F)F
7.25 ± 0.44,6.73 ± 0.4,6.85 ± 0.41,6.51 ± 0.39,–,–,–,–,CCc1ccccc1 [ethylbenzene] + CCCCn1cc[n+](C)c1.F[B-](F)(F)F
259 ± 16,250 ± 15,216 ± 13,142 ± 8.7,–,–,–,–,CCCCCCC [heptane] + CCCCn1cc[n+](C)c1.F[B-](F)(F)F
48 ± 2.9,39.3 ± 2.4,36.3 ± 2.2,38.8 ± 2.3,–,–,–,–,C=CCCCC [hex-1-ene] + CCCCn1cc[n+](C)c1.F[B-](F)(F)F
–,–,–,–,133 ± 9.1,130 ± 9,97.4 ± 6.7,74.2 ± 5.1,CCCCCC [hexane] + CCCCn1cc[n+](C)c1.F[B-](F)(F)F
0.22 ± 0.01,0.23 ± 0.01,0.26 ± 0.02,0.25 ± 0.02,–,–,–,–,C=O [methanal] + CCCCn1cc[n+](C)c1.F[B-](F)(F)F
1.22 ± 0.07,1.22 ± 0.07,1.22 ± 0.07,1.18 ± 0.07,–,–,–,–,CO [methanol] + CCCCn1cc[n+](C)c1.F[B-](F)(F)F
98.3 ± 5.9,82.7 ± 5,64.2 ± 3.9,57.1 ± 3.4,–,–,–,–,CC1CCCCC1 [methylcyclohexane] + CCCCn1cc[n+](C)c1.F[B-](F)(F)F
62.2 ± 3.7,53.5 ± 3.2,42.8 ± 2.6,55.4 ± 3.3,–,–,–,–,CC1CCCC1 [methylcyclopentane] + CCCCn1cc[n+](C)c1.F[B-](F)(F)F
956 ± 57,793 ± 48,612 ± 37,464 ± 28,–,–,–,–,CCCCCCCCC [nonane] + CCCCn1cc[n+](C)c1.F[B-](F)(F)F
425 ± 26,368 ± 22,333 ± 20,298 ± 18,–,–,–,–,CCCCCCCC [octane] + CCCCn1cc[n+](C)c1.F[B-](F)(F)F
2.6 ± 0.16,2.6 ± 0.16,2.66 ± 0.16,2.53 ± 0.15,–,–,–,–,CCCC(C)=O [pentan-2-one] + CCCCn1cc[n+](C)c1.F[B-](F)(F)F
2.63 ± 0.16,2.57 ± 0.15,2.66 ± 0.16,2.52 ± 0.15,–,–,–,–,CCC(=O)CC [pentan-3-one] + CCCCn1cc[n+](C)c1.F[B-](F)(F)F
3.12 ± 0.19,2.7 ± 0.16,2.43 ± 0.15,2.14 ± 0.13,–,–,–,–,CCCO [propan-1-ol] + CCCCn1cc[n+](C)c1.F[B-](F)(F)F
1.38 ± 0.08,1.33 ± 0.08,1.29 ± 0.08,1.21 ± 0.07,–,–,–,–,CCC=O [propanal] + CCCCn1cc[n+](C)c1.F[B-](F)(F)F
1.56 ± 0.09,1.52 ± 0.09,1.54 ± 0.09,1.49 ± 0.09,–,–,–,–,c1ccsc1 [thiophene] + CCCCn1cc[n+](C)c1.F[B-](F)(F)F
1.04 ± 0.06,1.04 ± 0.06,1.09 ± 0.07,1.09 ± 0.07,–,–,–,–,ClC(Cl)Cl [trichloromethane] + CCCCn1cc[n+](C)c1.F[B-](F)(F)F
9.44 ± 0.57,8.9 ± 0.6,35.3 ± 2.2,59.4 ± 3.6,–,–,–,–,CCN(CC)CC [triethylamine] + CCCCn1cc[n+](C)c1.F[B-](F)(F)F
